Experimental data: patent publication US8470810B2, “Heterocyclic compounds suitable for treating disorders that respond to modulation of the dopamine D3 receptor” (Abbott GmbH & Co. KG, priority 2004, dated 2013)
pKi: −log10 of the molar value.

How the values were obtained:
[1] = target: T1, human dopamine D2L receptors (long isoform) (Homo sapiens, UniProt P14416); experiment: Dopamine D2L receptor binding, displacement of [125I] iodospiperone; settings: membranes of HEK-293 cells stably expressing human D2L; 0.01 nM [125I] iodospiperone; 25° C., 60 minutes; read-out: Ki(D2)*
T1 construct: expressed in transfected cells
How it was run: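 Displacement of [125I]iodospiperone from human D2L receptors, triplicates, in 50 mM Tris pH 7.4 with 120 mM NaCl, 5 mM KCl, 2 mM CaCl2, 2 mM MgCl2, 0.1% BSA. Incubated 60 min at 25 °C, then filtered and counted by scintillation. Ki came from iterative nonlinear regression of inhibition curves.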

[2] = target: T2, human dopamine D3 receptors (Homo sapiens, UniProt P35462); experiment: Dopamine D3 receptor binding, displacement of [125I]-iodosulpride; settings: for pKi: membranes of HEK-293 cells stably expressing human D3, 0.1 nM [125I]-iodosulpride, 25° C., 60 minutes; for Ki(D2)*/Ki(D3)*: selectivity ratio of the receptor binding constants D2 over D3
T2 construct: expressed in transfected cells
How it was run: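 Displacement of [125I]-iodosulpride at human D3 receptors in pH 7.4 Tris buffer with NaCl, KCl, CaCl2, MgCl2, 0.1% BSA, 10 μM quinolone and 0.1% ascorbic acid, 60 min at 25 °C, in triplicate. Bound label collected by filtration and counted; Ki from nonlinear regression of inhibition curves.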

T2 sequence (P35462 whole entry): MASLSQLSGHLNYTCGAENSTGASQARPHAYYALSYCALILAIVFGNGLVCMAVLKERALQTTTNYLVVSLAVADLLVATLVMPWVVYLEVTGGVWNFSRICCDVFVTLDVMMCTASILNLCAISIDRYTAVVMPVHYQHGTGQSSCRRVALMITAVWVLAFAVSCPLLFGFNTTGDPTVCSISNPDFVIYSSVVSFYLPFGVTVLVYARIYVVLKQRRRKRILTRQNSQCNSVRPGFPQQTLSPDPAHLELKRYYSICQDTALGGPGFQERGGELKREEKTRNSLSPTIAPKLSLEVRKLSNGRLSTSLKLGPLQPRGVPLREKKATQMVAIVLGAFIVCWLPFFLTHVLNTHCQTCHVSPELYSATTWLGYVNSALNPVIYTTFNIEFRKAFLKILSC
T1 sequence (P14416 whole entry, canonical isoform): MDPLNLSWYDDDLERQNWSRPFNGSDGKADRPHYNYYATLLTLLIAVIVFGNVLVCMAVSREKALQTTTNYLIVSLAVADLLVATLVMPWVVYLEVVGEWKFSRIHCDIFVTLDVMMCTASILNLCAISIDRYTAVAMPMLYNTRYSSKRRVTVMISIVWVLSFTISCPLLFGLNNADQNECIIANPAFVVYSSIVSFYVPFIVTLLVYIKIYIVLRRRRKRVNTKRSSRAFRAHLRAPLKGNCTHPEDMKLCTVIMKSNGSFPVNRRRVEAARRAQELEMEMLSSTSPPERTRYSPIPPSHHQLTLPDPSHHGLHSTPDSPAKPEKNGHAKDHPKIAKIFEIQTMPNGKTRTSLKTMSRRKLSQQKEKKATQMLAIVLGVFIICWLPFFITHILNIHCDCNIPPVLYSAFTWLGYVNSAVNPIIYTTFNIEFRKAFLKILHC

pKi [1] | pKi [2] | Ki(D2)*/Ki(D3)* [2] | Compound
5.93 | 7.44 | 32 | CCCN1CC[C@@H](c2ccc(NS(=O)(=O)c3ccc(-c4cnn(C)c4)cc3)cc2)C1 [Example 118, 4-(1-Methyl-1H-pyrazol-4-yl)-N-[4-((S)-1-propyl-pyrrolidin-3-yl)-phenyl]-benzenesulfonamide]
6.76 | 8.70 | 86 | CCCN1CC[C@@H](c2ccc(NS(=O)(=O)c3ccc(N4CCOCC4)cc3)cc2)C1.Cl [Example 120, 4-Morpholin-4-yl-N-[4-((S)-1-propyl-pyrrolidin-3-yl)-phenyl]-benzenesulfonamide hydrochloride]
6.79 | 8.43 | 44 | CCCN1CC[C@@H](c2ccc(NS(=O)(=O)c3ccc(OCc4ccccc4)cc3)cc2)C1 [Example 121, 4-Benzyloxy-N-[4-((S)-1-propyl-pyrrolidin-3-yl)-phenyl]-benzenesulfonamide]
5.87 | 7.36 | 31 | CCCN1CC[C@@H](c2ccc(NS(=O)(=O)c3ccc(O)cc3)cc2)C1 [Example 122, 4-Hydroxy-N-[4-((S)-1-propyl-pyrrolidin-3-yl)-phenyl]-benzenesulfonamide]
7.39 | 9.35 | 91 | C=Cc1ccc(S(=O)(=O)Nc2ccc([C@@H]3CCN(CCC)C3)cc2)cc1 [Example 123, N-[4-((S)-1-Propyl-pyrrolidin-3-yl)-phenyl]-4-vinyl-benzenesulfonamide]
5.88 | 7.71 | 67 | CCCN1CC[C@@H](c2ccc(NS(=O)(=O)c3ccc(F)cc3)cc2)C1.Cl [Example 125, 4-Fluoro-N-[4-((S)-1-propyl-pyrrolidin-3-yl)-phenyl]-benzenesulfonamide hydrochloride]
5.99 | 7.47 | 30 | CCCN1CC[C@@H](c2ccc(NS(=O)(=O)c3ccc(F)c(F)c3)cc2)C1.Cl [Example 126, 3,4-Difluoro-N-[4-((S)-1-propyl-pyrrolidin-3-yl)-phenyl]-benzenesulfonamide hydrochloride]
7.19 | 9.22 | 112 | CCCN1CC[C@@H](c2ccc(NS(=O)(=O)c3ccc(N4CCC(F)(F)C4)cc3)cc2)C1 [Example 127, 4-(3,3-Difluoro-pyrrolidin-1-yl)-N-[4-((S)-1-propyl-pyrrolidin-3-yl)-phenyl]-benzenesulfonamide]
7.89 | 8.57 | 5 | CC(C)c1ccc(S(=O)(=O)Nc2ccc(C3CCN(Cc4ccccc4)C3)c(F)c2)cc1 (stereo not drawn) [Example 128, N-[4-(1-Benzyl-pyrrolidin-3-yl)-3-fluoro-phenyl]-4-isopropyl-benzenesulfonamide]
6.97 | 8.44 | 30 | CC(C)c1ccc(S(=O)(=O)Nc2ccc(C3CCNC3)c(F)c2)cc1 (stereo not drawn) [Example 129, N-(3-Fluoro-4-pyrrolidin-3-yl-phenyl)-4-isopropyl-benzenesulfonamide]
8.07 | 9.28 | 16 | CCCN1CCC(c2ccc(NS(=O)(=O)c3ccc(C(C)C)cc3)cc2F)C1.Cl (stereo not drawn) [Example 130, N-[3-Fluoro-4-(1-propyl-pyrrolidin-3-yl)-phenyl]-4-isopropyl-benzenesulfonamide, hydrochloride]
6.72 | 8.14 | 26 | CCCN1CCC[C@@H](c2ccc(NS(=O)(=O)c3ccc(OC(F)(F)F)cc3)cc2)C1 [Example 133, N-[4-((S)-1-Propyl-piperidin-3-yl)-phenyl]-4-trifluoromethoxy-benzenesulfonamide]

Compound | pKi [1] | pKi [2] | Ki(D2)*/Ki(D3)* [2]
N-[4-((S)-1-Propyl-pyrrolidin-3-yl)-phenyl]-4-pyrrol-1-yl-benzenesulfonamide [Example 74] | 7.98 | 9.16 | 15
